What was measured:
[1] = Ethinylestradiol pharmacokinetics alone and with ritonavir in healthy female volunteers; assay type: in vivo, human
Description: This was an open-label, single-center study in healthy female volunteers who had not received an oral contraceptive for a minimum of six months prior to study start. Subjects received the first dose of oral contraceptive containing 50 μg of ethinyl estradiol on Day 1. […] On Day 15, 300 mg q12h was administered, 400 mg q12h was given on Day 16, and 500 mg q12h was administered thereafter. […] Blood samples for ethinylestradiol concentrations were collected for 48 h after each of the oral contraceptive doses.
Twenty-seven subjects were enrolled in the study. […] Data from these four subjects were therefore excluded from summary statistics. The mean ±SD age of the 23 subjects who completed the study was 34±10 yrs (range 19 to 45 yrs), the mean ±SD weight was 67.3±10.9 kg (range 50.8 to 90.3 kg), and the mean ±SD height was 167±7 cm (range 155 to 180 cm). […]
Analysis of serum samples for determination of ethinyl estradiol was performed at Pharmaco LSR, Richmond, Va. Ethinylestradiol serum concentrations were determined using a gas chromatography/mass spectrometry (GC/MS) method. […] This method has been validated over 17α-ethinylestradiol concentrations ranging from 2.00 to 256 pg/mL for a 1.0 mL serum volume, with a minimum quantitation limit of 2.00 pg/mL.
Ethinylestradiol pharmacokinetic parameters were estimated following two single doses, on Day 1 and Day 29, using noncompartmental methods. The pharmacokinetic parameters were calculated using the intended sampling times; all samples were collected within 10% of intended sampling times. […] The area under the plasma concentration-time curve (AUC∞) was calculated as the sum of AUCt, the area up to the last measurable concentration computed using the linear trapezoidal rule, and the extrapolation to infinity, calculated as the quotient of the last measurable concentration (Ct) and the terminal elimination rate constant (β). The terminal elimination rate constant was calculated as the negative of the slope of the regression of the logarithms of the plasma concentrations vs. time, starting at 18 h post-dose. […]

[2] = tested on: 1-naphthol glucuronidation; assay: Hepatic 1-naphthol glucuronidation activity in liver microsomes of treated rats
UGT1A1 = assay: Hepatic 17α-ethinylestradiol glucuronidation activity in liver microsomes of treated rats
[3] = tested on: 3-methylcholanthrene-inducible UDP-glucuronosyltransferase; assay: Rat liver microarray (Affymetrix Rat U34), UGT1A probe induction; assay type: in vivo, Sprague-Dawley rats
[4] = tested on: UDP-glucuronosyltransferase 1 family, member 1; assay: as above; assay type: in vivo, Sprague-Dawley rats; conditions: 3-Day Studies
[5] = tested on: UDP glucuronosyltransferase, exon 1.; assay: as above; assay type: in vivo, Sprague-Dawley rats
[6] = tested on: UDP-glucuronosyltransferase 1A (UGT1A); assay: Rat liver microarray, all UGT1A probe sets; assay type: in vivo, Sprague-Dawley rats; conditions: dose levels of 100 mg/kg and higher, after 1 and 3 days of treatment
[7] = subjects taking atazanavir, one study; cited from earlier work
[8] = tested on: bilirubin conjugation in human microsomes; conditions: in vitro system of human microsomes; cited from earlier work
UGT1A1 isoform = biological target: T1, UGT1A1 isoform (Homo sapiens, UniProt P22309); conditions: human cells transfected with the UGT1A1 isoform; cited from earlier work
T1 sequence (P22309 26-533): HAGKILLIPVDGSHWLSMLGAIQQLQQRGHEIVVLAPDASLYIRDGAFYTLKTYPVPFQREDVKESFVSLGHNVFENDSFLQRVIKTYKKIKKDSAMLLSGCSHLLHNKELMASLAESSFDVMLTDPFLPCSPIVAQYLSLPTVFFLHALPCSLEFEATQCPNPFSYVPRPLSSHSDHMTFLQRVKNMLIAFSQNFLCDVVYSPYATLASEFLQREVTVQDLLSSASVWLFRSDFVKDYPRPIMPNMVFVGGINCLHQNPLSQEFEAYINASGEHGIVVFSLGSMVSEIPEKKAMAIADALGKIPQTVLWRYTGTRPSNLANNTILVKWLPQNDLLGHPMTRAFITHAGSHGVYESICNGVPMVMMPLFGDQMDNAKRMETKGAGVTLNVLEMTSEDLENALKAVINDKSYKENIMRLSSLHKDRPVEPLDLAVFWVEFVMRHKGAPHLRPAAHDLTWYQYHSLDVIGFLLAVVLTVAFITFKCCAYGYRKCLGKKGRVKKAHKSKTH

[9] = tested on: bilirubin-conjugating activity; conditions: cited from earlier work
[10] = serum ethinylestradiol, single 50 μg oral contraceptive dose, Mean ± SD, n = 23, alone Day 1, with ritonavir 500 mg q12h Day 29
[11] = 1-Day Studies, 50 mg/kg oral (second column)
[12] = 3-Day Studies, 100 mg/kg oral daily
[13] = 3-Day Studies, 125 mg/kg oral daily

C#C[C@]1(O)CC[C@H]2[C@@H]3CCc4cc(O)ccc4[C@H]3CC[C@@]21C [Ethinylestradiol, 17α-ethinylestradiol]
Tmax [1, 10]: 4.0 ± 1.7 h
β (terminal elimination rate constant) [1, 10]: 0.0407 ± 0.0082 h⁻¹
time at which serum ethinylestradiol concentrations peaked post-dose ([1]; single dose of oral contraceptive): approximately 4 h

CCC1(c2ccccc2)C(=O)NC(=O)NC1=O [Phenobarbitol]
1-naphthol glucuronidation ([2]; Females, T3: phenobarbital 50 mg/kg intraperitoneal daily 4 days, 50 μM substrate): 9.3 ± 0.4 nmol/mg/min
1-naphthol glucuronidation ([2]; Females, T3: phenobarbital 50 mg/kg intraperitoneal daily 4 days, 1000 μM substrate): 46.4 ± 8.6 nmol/mg/min
1-naphthol glucuronidation ([2]; Males, T3: phenobarbital 50 mg/kg intraperitoneal daily 4 days, 50 μM substrate): 15.4 ± 3.1 nmol/mg/min
1-naphthol glucuronidation ([2]; Males, T3: phenobarbital 50 mg/kg intraperitoneal daily 4 days, 1000 μM substrate): 41.0 ± 5.0 nmol/mg/min
17α-ethinylestradiol glucuronidation (UGT1A1; Females, T3: phenobarbital 50 mg/kg intraperitoneal daily 4 days, 100 μM substrate): 91.0 ± 34.0 pmol/mg/min
17α-ethinylestradiol glucuronidation (UGT1A1; Females, T3: phenobarbital 50 mg/kg intraperitoneal daily 4 days, 250 μM substrate): 360.6 ± 88.1 pmol/mg/min
17α-ethinylestradiol glucuronidation (UGT1A1; Males, T3: phenobarbital 50 mg/kg intraperitoneal daily 4 days, 100 μM substrate): 45.1 ± 16.5 pmol/mg/min
17α-ethinylestradiol glucuronidation (UGT1A1; Males, T3: phenobarbital 50 mg/kg intraperitoneal daily 4 days, 250 μM substrate): 258.5 ± 98.5 pmol/mg/min

CC(C)c1nc(CN(C)C(=O)N[C@H](C(=O)N[C@@H](Cc2ccccc2)C[C@H](O)[C@H](Cc2ccccc2)NC(=O)OCc2cncs2)C(C)C)cs1 [Ritonavir]
Fold change ([3]; 1-Day Studies, 20 mg/kg oral (first column)): 1.83 fold
Fold change ([3]; 1-Day Studies, 20 mg/kg oral (second column)): 1.54 fold
Fold change ([3]; 1-Day Studies, 50 mg/kg oral (first column)): 1.63 fold
Fold change [3, 11]: 2.1 fold
Fold change ([3]; 3-Day Studies, 50 mg/kg oral daily (first column)): 1.54 fold
Fold change ([3]; 3-Day Studies, 50 mg/kg oral daily (second column)): 1.85 fold
Fold change ([3]; 3-Day Studies, 75 mg/kg oral daily): 1.97 fold
Fold change [3, 12]: 2.26 fold
Fold change [3, 13]: 2.25 fold
Fold change ([4]; 50 mg/kg oral daily (first column)): 1.31 fold
Fold change ([4]; 50 mg/kg oral daily (second column)): 1.33 fold
Fold change [5, 11]: 2.43 fold
Fold change [5, 12]: 3.96 fold
Fold change [5, 13]: 5.06 fold
1-naphthol glucuronidation ([2]; Females, T1: ritonavir 15 mg/kg oral daily 14 days, 50 μM substrate): 7.3 ± 1.2 nmol/mg/min
1-naphthol glucuronidation ([2]; Females, T1: ritonavir 15 mg/kg oral daily 14 days, 1000 μM substrate): 33.7 ± 5.2 nmol/mg/min
1-naphthol glucuronidation ([2]; Females, T2: ritonavir 50 mg/kg oral daily 14 days, 50 μM substrate): 10.0 ± 2.7 nmol/mg/min
1-naphthol glucuronidation ([2]; Females, T2: ritonavir 50 mg/kg oral daily 14 days, 1000 μM substrate): 37.7 ± 4.9 nmol/mg/min
1-naphthol glucuronidation ([2]; Males, T1: ritonavir 15 mg/kg oral daily 14 days, 50 μM substrate): 9.5 ± 1.5 nmol/mg/min
1-naphthol glucuronidation ([2]; Males, T1: ritonavir 15 mg/kg oral daily 14 days, 1000 μM substrate): 23.0 ± 2.5 nmol/mg/min
1-naphthol glucuronidation ([2]; Males, T2: ritonavir 50 mg/kg oral daily 14 days, 50 μM substrate): 8.3 ± 1.4 nmol/mg/min
1-naphthol glucuronidation ([2]; Males, T2: ritonavir 50 mg/kg oral daily 14 days, 1000 μM substrate): 22.8 ± 4.3 nmol/mg/min
17α-ethinylestradiol glucuronidation (UGT1A1; Females, T1: ritonavir 15 mg/kg oral daily 14 days, 100 μM substrate): 54.5 ± 24.0 pmol/mg/min
17α-ethinylestradiol glucuronidation (UGT1A1; Females, T1: ritonavir 15 mg/kg oral daily 14 days, 250 μM substrate): 336.4 ± 75.8 pmol/mg/min
17α-ethinylestradiol glucuronidation (UGT1A1; Females, T2: ritonavir 50 mg/kg oral daily 14 days, 100 μM substrate): 146.5 ± 26.0 pmol/mg/min
17α-ethinylestradiol glucuronidation (UGT1A1; Females, T2: ritonavir 50 mg/kg oral daily 14 days, 250 μM substrate): 590.9 ± 101.2 pmol/mg/min
17α-ethinylestradiol glucuronidation (UGT1A1; Males, T1: ritonavir 15 mg/kg oral daily 14 days, 100 μM substrate): 58.8 ± 2.2 pmol/mg/min
17α-ethinylestradiol glucuronidation (UGT1A1; Males, T1: ritonavir 15 mg/kg oral daily 14 days, 250 μM substrate): 171.8 ± 38.1 pmol/mg/min
17α-ethinylestradiol glucuronidation (UGT1A1; Males, T2: ritonavir 50 mg/kg oral daily 14 days, 100 μM substrate): 34.0 ± 10.0 pmol/mg/min
17α-ethinylestradiol glucuronidation (UGT1A1; Males, T2: ritonavir 50 mg/kg oral daily 14 days, 250 μM substrate): 290.1 ± 45.6 pmol/mg/min
glucuronidation of 17α-ethinylestradiol, a UGT1A1 substrate (UGT1A1; both male and female rats): significantly increase
increase in glucuronidation of 17α-ethinylestradiol (UGT1A1; both male and female rats treated with 50 mg/kg/day): 2 fold
UG1A levels for all probe sets [6]: consistent increase

COC(=O)N[C@H](C(=O)N[C@@H](Cc1ccccc1)[C@@H](O)CN(Cc1ccc(-c2ccccn2)cc1)NC(=O)[C@@H](NC(=O)OC)C(C)(C)C)C(C)(C)C [atazanavir, Atazanavir]
subjects exhibiting unconjugated hyperbilirubinemia [7]: 57%
inhibition of bilirubin conjugation [8]: inhibits bilirubin conjugation in the micromolar range
inhibition of bilirubin conjugation (UGT1A1 isoform): inhibits bilirubin conjugation in the micromolar range

CC(C)(C)NC(=O)[C@@H]1CN(Cc2cccnc2)CCN1C[C@@H](O)C[C@@H](Cc1ccccc1)C(=O)N[C@H]1c2ccccc2C[C@H]1O [indinavir, Indinavir]
inhibition of bilirubin-conjugating activity [9]: direct inhibition of bilirubin-conjugating activity
